Test results taken from PubChem BioAssay AID192 (DTP/NCI, 2004).
Values joined by “and” are separate entries in the source; they are usually repeats but may differ in a detail not shown here. Equal entries are not always repeated. Toxic doses and inconclusive results are not listed. The calls were made as follows: active = survival T/C of 150% or more; inactive = T/C below 125% in these data. Square brackets hold non-standard residues; d marks the D form. Peptide text beside a SMILES is read from it. * marks the point of attachment. ξ: configuration not given here. Cbz = O=C(OCc1ccccc1)*; ξV = CC(C)C(N)C(=O)O; Sar = CNCC(=O)O

Tested on: BDF1 mice, B16 melanoma ip, median survival T/C
Test: NCI In Vivo Anticancer Drug Screen. Data for tumor model B16 Melanoma (intraperitoneal) in B6D2F1 (BDF1) mice
Conditions: endpoint: median survival time, higher = longer survival
How it was run: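 Compounds were tested in mice carrying transplantable tumors. Survival or tumor size was recorded, and each value is the treated-group measurement (T) divided by that of the vehicle-treated control group (C).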

[1] = dose: 50.0 mg/kg/injection, schedule: Q01DX009 (ip), vehicle: Klucel (hydroxypropylcellulose) (HPC)
[2] = dose: 100.0 mg/kg/injection, schedule: Q01DX009 (ip), vehicle: Klucel (hydroxypropylcellulose) (HPC)
[3] = dose: 100.0 mg/kg/injection, schedule: Q04DX003 (ip), vehicle: Klucel (hydroxypropylcellulose) (HPC)
[4] = dose: 100.0 mg/kg/injection, schedule: Q01DX009 (ip), vehicle: saline with Tween-80
[5] = dose: 200.0 mg/kg/injection, schedule: Q01DX009 (ip), vehicle: saline with Tween-80
[6] = dose: 400.0 mg/kg/injection, schedule: Q01DX009 (ip), vehicle: saline with Tween-80
[7] = dose: 12.5 mg/kg/injection, schedule: Q01DX009 (ip), vehicle: saline
[8] = dose: 25.0 mg/kg/injection, schedule: Q01DX009 (ip), vehicle: saline
[9] = dose: 50.0 mg/kg/injection, schedule: Q01DX009 (ip), vehicle: saline
[10] = dose: 200.0 mg/kg/injection, schedule: Q01DX009 (ip), vehicle: Klucel (hydroxypropylcellulose) (HPC)
[11] = dose: 25.0 mg/kg/injection, schedule: Q01DX009 (ip), vehicle: Klucel (hydroxypropylcellulose) (HPC)
[12] = dose: 50.0 mg/kg/injection, schedule: Q01DX009 (ip), vehicle: saline with Tween-80
[13] = dose: 200.0 mg/kg/injection, schedule: Q04DX003 (ip), vehicle: Klucel (hydroxypropylcellulose) (HPC)
[14] = dose: 400.0 mg/kg/injection, schedule: Q04DX003 (ip), vehicle: Klucel (hydroxypropylcellulose) (HPC)
[15] = dose: 6.25 mg/kg/injection, schedule: Q01DX009 (ip), vehicle: saline with Tween-80
[16] = dose: 25.0 mg/kg/injection, schedule: Q01DX009 (ip), vehicle: saline with Tween-80
[17] = dose: 12.5 mg/kg/injection, schedule: Q01DX009 (ip), vehicle: saline with Tween-80

Measured: T/C

CC[C@]12CN3CCc4c([nH]c5ccccc45)[C@@](C(=O)OC)(c4cc5c(cc4OC)N(C)[C@H]4[C@@](O)(C(=O)OC)[C@H](OC(C)=O)[C@]6(CC)C=CCN7CC[C@]54[C@@H]76)CC(C3)[C@H]1O2 (some centres undefined)
inactive: dose: 0.05 mg/kg/injection, schedule: Q01DX009 (ip), vehicle: saline 106 % of control | dose: 0.1 mg/kg/injection, schedule: Q01DX009 (ip), vehicle: saline 101 % of control | dose: 0.2 mg/kg/injection, schedule: Q01DX009 (ip), vehicle: saline 97 % of control | dose: 0.4 mg/kg/injection, schedule: Q01DX009 (ip), vehicle: saline 113 % of control | dose: 0.75 mg/kg/injection, schedule: Q01DX009 (ip), vehicle: Klucel (hydroxypropylcellulose) (HPC) 107 % of control | dose: 0.75 mg/kg/injection, schedule: Q01DX009 (ip), vehicle: saline 90 % of control | dose: 0.8 mg/kg/injection, schedule: Q01DX009 (ip), vehicle: saline 116 % of control | dose: 1.5 mg/kg/injection, schedule: Q01DX009 (ip), vehicle: Klucel (hydroxypropylcellulose) (HPC) 115 % of control | dose: 1.5 mg/kg/injection, schedule: Q04DX003 (ip), vehicle: saline 102 % of control | dose: 1.6 mg/kg/injection, schedule: Q01DX009 (ip), vehicle: saline 113 % of control | dose: 3.0 mg/kg/injection, schedule: Q04DX003 (ip), vehicle: saline 111 % of control
active: dose: 3.0 mg/kg/injection, schedule: Q01DX009 (ip), vehicle: saline 187 % of control | dose: 3.2 mg/kg/injection, schedule: Q01DX009 (ip), vehicle: saline 162 % of control | dose: 4.0 mg/kg/injection, schedule: Q01DX009 (ip), vehicle: saline 175 % of control and 202 % of control | dose: 6.0 mg/kg/injection, schedule: Q01DX009 (ip), vehicle: saline 221 % of control [middle of 4 runs] | dose: 6.4 mg/kg/injection, schedule: Q01DX009 (ip), vehicle: saline 157 % of control | dose: 9.0 mg/kg/injection, schedule: Q01DX009 (ip), vehicle: saline 212 % of control and 248 % of control | dose: 12.0 mg/kg/injection, schedule: Q01DX009 (ip), vehicle: Klucel (hydroxypropylcellulose) (HPC) 168 % of control | dose: 12.0 mg/kg/injection, schedule: Q01DX009 (ip), vehicle: saline 161 % of control | dose: 12.0 mg/kg/injection, schedule: Q04DX003 (ip), vehicle: saline 152 % of control | dose: 12.8 mg/kg/injection, schedule: Q01DX009 (ip), vehicle: saline 169 % of control

OCC1OC(n2cnc3c(=S)nc[nH]c32)CC1O (centres undefined)
inactive: [1] 97 % of control | [2] 92 % of control

Cn1c(O)c(C=N)c(=O)n(C)c1=O
inactive: dose: 25.0 mg/kg/injection, schedule: Q01DX009 (ip), vehicle: other 111 % of control | dose: 50.0 mg/kg/injection, schedule: Q01DX009 (ip), vehicle: other 102 % of control

C1CC[N-]CC1.C1CC[N-]CC1.O=C(O)C(=O)O.[Pt+2]
inactive: dose: 6.25 mg/kg/injection, schedule: Q04DX003 (ip), vehicle: Klucel (hydroxypropylcellulose) (HPC) 100 % of control | dose: 12.5 mg/kg/injection, schedule: Q04DX003 (ip), vehicle: Klucel (hydroxypropylcellulose) (HPC) 120 % of control | dose: 25.0 mg/kg/injection, schedule: Q04DX003 (ip), vehicle: Klucel (hydroxypropylcellulose) (HPC) 119 % of control | dose: 50.0 mg/kg/injection, schedule: Q04DX003 (ip), vehicle: Klucel (hydroxypropylcellulose) (HPC) 115 % of control | [3] 113 % of control

O=C(Nc1ccc(Cl)cc1)OCCN1CCOCC1
inactive: [4] 110 % of control | [5] 110 % of control | [6] 97 % of control

CC(C)C(NC(=O)CN(C)C(=O)OCc1ccccc1)C(=O)O (centres undefined) (Cbz-[Sar]-[ξV]-OH)
inactive: dose: 6.25 mg/kg/injection, schedule: Q01DX009 (ip), vehicle: saline 96 % of control | [7] 104 % of control | [8] 93 % of control | [9] 97 % of control and 101 % of control

O=C(O)/C=C/C(=O)NCc1ccco1
inactive: [2] 102 % of control | [10] 86 % of control

S=C(NNc1ccccc1)Nc1ccccc1
inactive: [11] 97 % of control | [1] 106 % of control

CSc1ncc(C#N)c(N)n1
inactive: [12] 107 % of control | [4] 99 % of control | [5] 97 % of control

CC(=O)OC(C)c1ccccc1 (centres undefined)
inactive: [2] 93 % of control | [10] 96 % of control

Cc1c(O)c2c(c(O)c1Cc1ccc(CN)cc1)C(=O)c1ccccc1C2=O
inactive: dose: 0.78 mg/kg/injection, schedule: Q01DX009 (ip), vehicle: water 109 % of control | dose: 1.56 mg/kg/injection, schedule: Q01DX009 (ip), vehicle: water 109 % of control | dose: 3.13 mg/kg/injection, schedule: Q01DX009 (ip), vehicle: water 98 % of control | dose: 6.25 mg/kg/injection, schedule: Q01DX009 (ip), vehicle: water 93 % of control

CN(C(=S)S(=O)(=O)C12CC3CC(CC(C3)C1)C2)c1ccccc1
inactive: dose: 3.12 mg/kg/injection, schedule: Q01DX009 (ip), vehicle: Klucel (hydroxypropylcellulose) (HPC) 98 % of control | dose: 6.25 mg/kg/injection, schedule: Q01DX009 (ip), vehicle: Klucel (hydroxypropylcellulose) (HPC) 98 % of control | dose: 12.5 mg/kg/injection, schedule: Q01DX009 (ip), vehicle: Klucel (hydroxypropylcellulose) (HPC) 95 % of control | [11] 95 % of control | [1] 88 % of control

CCOC(=O)/C(Cc1cc[n+]([O-])c2ccccc12)=N/O
inactive: [3] 88 % of control | [13] 97 % of control | [14] 88 % of control

CCCCC#CCOCC(O)CCl (centres undefined)
inactive: dose: 3.13 mg/kg/injection, schedule: Q01DX009 (ip), vehicle: saline with Tween-80 118 % of control | [15] 114 % of control | [16] 101 % of control

CCC(C)C1CCCCC1 (centres undefined)
inactive: [2] 91 % of control | [10] 108 % of control | dose: 400.0 mg/kg/injection, schedule: Q01DX009 (ip), vehicle: Klucel (hydroxypropylcellulose) (HPC) 98 % of control

COc1ccc(N=O)c(O)c1
inactive: [15] 97 % of control | [17] 97 % of control | [16] 90 % of control | [12] 109 % of control | [9] 95 % of control | dose: 100.0 mg/kg/injection, schedule: Q01DX009 (ip), vehicle: saline 90 % of control
active: [8] 197 % of control

OCC1OC(n2cnc3cncnc32)C(O)C1O (centres undefined)
inactive: [7] 115 % of control

CCC(=O)NCC1(c2ccccc2)CCN(CC2COc3ccccc3O2)CC1 (centres undefined)
inactive: dose: 25.0 mg/kg/injection, schedule: Q04DX003 (ip), vehicle: saline 116 % of control | dose: 50.0 mg/kg/injection, schedule: Q04DX003 (ip), vehicle: saline 107 % of control | dose: 100.0 mg/kg/injection, schedule: Q04DX003 (ip), vehicle: saline 105 % of control

CCC1(O)CC2c3ccccc3CCN2CC1CC(C)C (centres undefined)
inactive: dose: 0.19 mg/kg/injection, schedule: Q01DX009 (ip), vehicle: saline 104 % of control | dose: 0.39 mg/kg/injection, schedule: Q01DX009 (ip), vehicle: saline 111 % of control | dose: 0.78 mg/kg/injection, schedule: Q01DX009 (ip), vehicle: saline 109 % of control | dose: 1.56 mg/kg/injection, schedule: Q01DX009 (ip), vehicle: saline 112 % of control | dose: 3.12 mg/kg/injection, schedule: Q01DX009 (ip), vehicle: saline 112 % of control

Cc1cc(C)c(OC2=C(c3c(C)cc(C)cc3C)C(=O)c3ccccc32)c(C)c1
inactive: [12] 104 % of control | [4] 100 % of control | [5] 98 % of control | [6] 91 % of control

O=C(CCl)N1CCC2(CC1)SSC1(CCN(C(=O)CCl)CC1)S2
inactive: [17] 100 % of control | [16] 90 % of control

CC(=O)Oc1cc(-c2c(C)cc(C)cc2C)c(OC(C)=O)cc1C
inactive: [3] 93 % of control | [13] 91 % of control | [14] 97 % of control
